Square brackets hold non-standard residues; d marks the D form. Peptide text beside a SMILES is read from it.
Tests used:
OR51E2 = molecular target: T1, OR51E2 (Homo sapiens, UniProt Q9H255); assay: in vitro luciferase assay (CRE-Luc) in Hana3A cells transfected with OR51E2; type: cell-based; settings: for EC50: OR51E2 agonist, Hana3A cells, luciferase, read-out: EC50 (potency); for Efficacy: compared to the 1 mM PA response
T1 construct: expressed in transfected cells; host or cells: Hana3A cells (modified human embryonic kidney cells)
T1 sequence (Q9H255 1-320): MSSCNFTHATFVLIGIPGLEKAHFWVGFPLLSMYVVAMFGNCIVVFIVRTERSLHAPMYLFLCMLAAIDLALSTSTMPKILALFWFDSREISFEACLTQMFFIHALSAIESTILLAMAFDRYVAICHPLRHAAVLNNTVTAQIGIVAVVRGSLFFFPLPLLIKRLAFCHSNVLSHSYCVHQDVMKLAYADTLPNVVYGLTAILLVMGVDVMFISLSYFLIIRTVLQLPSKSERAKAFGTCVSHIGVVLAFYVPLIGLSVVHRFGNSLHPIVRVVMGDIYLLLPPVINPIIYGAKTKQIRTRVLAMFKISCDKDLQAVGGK
Experimental: Hana3A cells (modified human embryonic kidney cells) were cultured in 96 well plates in M10PSF medium. LNCaP human prostate cancer cells were cultured in both RPMI medium and androgen deprived RPMI medium. Hana3A cells were transfected with CRE-Luc (CREB-dependent luciferase (Firefly)) and SV40-RL promoter plasmids, and pCI and OR51E2 plasmids. […] Upon ligand binding, an increase in cAMP drives the expression of Firefly luciferase. Increase in luminescence signal was measured with a luminometer and Optima Data Analysis software. The luminescent signal is directly proportional to receptor activation. A general schematic of a luciferase assay is shown in FIG. 5 and a schematic of the assay used in this Example is shown in FIG. 6.
The top 56 compounds from the VLS list were tested using the in vitro expression and luciferase assay. […] The biologically relevant concentrations of each metabolite were individually determined based on available data in the literature. If no data were available, compounds were tested in the range of 1 nM-100 μM. Responses were normalized to the response with 1 mM propionic acid (PA), a previously identified agonist, and also to a response with no-control.

LNCaP cells [1] = assay: RT-PCR assay of NED marker and OR51E2 transcript levels in LNCaP cells; type: cell-based, human
Experimental: To assess the differentiation status of LNCaP cells following treatment with an OR51E2 ligand, cells were exposed to the ligands for three days. Biological markers of NED were analyzed using an RT-PCR assay. The following markers were tested: neuron specific enolase (NSE) and α-methylacyl-CoA racemase (AMACR), an enzyme essential for isomerization of branched-chained fatty acids that is present at low levels in healthy prostate cells and increased in PCa and in NE-like cells. Furthermore, changes in the expression levels of OR51E2 and androgen receptor (AR) were determined. This experiment will also be conducted using RWPE-2 cells.
For example, 19-OH AD agonist treatment of LNCaP cells increased OR51E2 transcript levels. […] Further studies using siRNA gene knockdown assays, will determine whether activated/overexpressed OR51E2 is involved in NEtD.

LNCaP cells [2] = assay: untargeted GC/MS metabolomics signatures of LNCaP cells treated with OR51E2 ligand; type: cell-based, human; settings: 72 hours, 100 nM 19-OH AD, 250 μM AFMK, 1 mM PA
Experimental: Metabolomics signatures were assessed using untargeted gas chromatography/mass spectrometry (GC/MS) to analyze LNCaP cells treated with an OR51E2 ligand for 3 days. There were six biological replicates for each treatment and the results were analyzed using MetaboAnalyst software. The same analysis will also be conducted using RWPE-2 cells.
GC/MS analysis detected greater than 250 features, and 115 of them were annotated. In FIG. 24A-24F, the top 15 metabolites are presented showing the most significant differences in cells treated with agonists when compared to control cells.

LNCaP cells [3] = settings: cited from earlier work
LNCaP cells [4] = assay: cell viability/proliferation assay of LNCaP cells (CellTiter-Glo); type: cell-based, human; settings: 10 uM, 7 day incubation, vs untreated control
Experimental: The NEtD status was assessed through analysis of viability and proliferation of LNCap cells using use CellTiter-Glo Luminescent cell viability assay (Promega). […] Viability and proliferation assays will also be conducted with OR51E2 ligands in RWPE-2 cells.
Furthermore, a cell viability/proliferation assay of prostate cancer LNCaP cells was performed using 13-cis RA during a 7 day incubation period.

[5] = 12 days incubation with agonist, vs control

Compound | EC50 (OR51E2) [nM] | Efficacy (OR51E2) | further results
C[C@]12CC[C@H]3[C@@H](CCC4=CC(=O)CC[C@@]43CO)[C@@H]1CCC2=O [19-OH AD, 19-hydroxyandrost-4-ene-3,17-dione] | 0.15 | 0.890 | OR51E2 transcript levels (LNCaP cells [1]; [5]): increased; metabolite differences relative to controls (GC/MS) (LNCaP cells [2]): significant differences relative to controls
C[C@]12CC[C@@H]3c4ccc(O)cc4CC[C@H]3[C@@H]1C[C@@H](O)[C@@H]2O [Estriol] | 53000 |  | 
NCC(=O)O [Glycine] |  | 0.613 | 
OC[C@H]1O[C@H](O[C@H]2C(O)O[C@H](CO)[C@@H](O)[C@@H]2O)[C@H](O)[C@@H](O)[C@@H]1O (stereo partly drawn) [Kojibiose] | 1000 | 0.790 | 
NC(N)=O [Urea] | 23 | 0.580 | 
O=C(O)[C@@H](O)CO [L-Glyceric acid] | 1.9 |  | 
C[C@]12CC[C@H]3[C@@H](CCC4=CC(=O)CC[C@@]43C)[C@@H]1CC[C@H]2O [Epitestosterone] | 0.69 | 0.477 | 
CC(=O)/C=C/C1=C(C)CCCC1(C)C [beta ionone, beta-ionone] |  |  | proliferation of LNCaP cells (LNCaP cells [3]; Neuhaus et al. (2009), OR51E2/PSGR activation): decreased
CCC(=O)O [PA, propionic acid] |  |  | AMACR transcript levels (LNCaP cells [1]; [5]): increased; NSE transcript levels (LNCaP cells [1]; [5]): increased; metabolite differences relative to controls (GC/MS) (LNCaP cells [2]): significant differences relative to controls
CC(=O)N[C@@H](CCC(=O)O)C(=O)O [N-Acetylglutamic acid] | 0.23 |  | 
NCC(=O)NCC(=O)O [Glycylglycine] (H-Gly-Gly-OH) | 11000 |  | 
Nc1ncnc2c1ncn2C1OC(CO)C2OP(=O)(O)OC21 (stereo not drawn) [Adenosine 2′,3′-cyclic phosphate] | 26 | 1.025 | 
C[C@@H](N)C(=O)N[C@H](C)C(=O)O [D-Alanyl-d-alanine] (H-[dA]-[dA]-OH) | 14000 |  | 
CC1=C(/C=C/C(C)=C/C=C/C(C)=C\C(=O)O)C(C)(C)CCC1 [13-cis RA, 13-cis retinoic acid] |  |  | IC50 (OR51E2; responses normalized to 1 mM PA, read-out: IC50 (OR51E2 antagonist)): 160 nM; OR51E2 transcript levels (LNCaP cells [1]; 10 μM, 3 days, vs control cells): significantly decreased; LNCaP growth (LNCaP cells [4]): effectively impeded; LNCaP cell growth and tumorigenic potential (LNCaP cells [3]; Dahiya et al. (1994)): inhibits cell growth and decreases tumorigenic potential
CCCCCCCCCCCCCCCC(=O)O [Palmitic acid] | 9.8 | 0.927 | 
O=C(O)C(=O)CO [Hydroxypyruvic acid] | 420 | 1.100 | 
Cc1c(O)cc2c(c1C)OC(C)(CCC(=O)O)CC2 (stereo not drawn) [Gamma-CEHC] | 6.4 | 1.286 | 
O=C1CCCN1 [2-Pyrrolidinone] | 1.9 | 0.525 | 
C[C@]12CCC(=O)CC1CC[C@@H]1[C@@H]2CC[C@]2(C)C(=O)CC[C@@H]12 (stereo partly drawn) [Androstanedione] | 0.79 | 0.888 | 
COc1ccc(NC=O)c(C(=O)CCNC(C)=O)c1 [AFMK, N-acetyl-N-formyl-5-metoxykynurenamine] | 12000 | 1.483 | metabolite differences relative to controls (GC/MS) (LNCaP cells [2]): significant differences relative to controls

Source: patent US12186294B2, “Modulators of prostate-specific g-protein receptor (PSGR/OR51E2) and methods of using same” (Duke University, priority 2016, dated 2025)
